This is an account of results in patent US10676436B2, “NLRX1 ligands” (Landos Biopharma, Inc., priority 2018, dated 2020).

One assay concerns CD4+ T cells. Nature of the assay: Immunological screening in vitro in CD4+ splenocytes, flow cytometry. As to conditions: for proportion of IFNγ producing (IFNγ+) CD4+ T cells / proportion of TNFα producing (TNFα+) CD4+ T cells: wild-type cells, 48 h, PMA and ionomycin; for size and dose dependence of the effect on TNFα producing and IFNγ producing cells: within the range tested. The assay is classed as cell-based, C57BL/6 mice. An excerpt: Spleens were excised from C57BL/6 mice. Spleens were crushed between the frosted ends of microscope slides and filtered to provide a cellular suspension. Red blood cells were lysed through hypotonic lysis. Remaining cells were washed and filtered. CD4+ T cells were enriched within the suspension using magnetic sorting based negative selection. Cells were collected and plated within 96 well plates coated with anti-CD3 and cultured in the presence of NX-13, NX-37, NX-43, NX-44, or NX-50 at 0, 0.1, 1 or 10 micromolar; NX-53, NX-54, NX-55, or NX-56 at 0, 0.1, or 1 micromolar; or NX-45 at 10, 50 or 100 nanomolar for 48 h. During the last 6 h of culture, cells were stimulated with phorbol 12-myristate-13-acetate (PMA) and ionomycin.
Cells were collected from 96 well plates and stained with a cocktail of antibodies for immunophenotyping by flow cytometry. Culture supernatant was collected and assayed for cytokine concentrations by cytometric bead array. Data was captured on a BD FACS Celesta and analyzed using FacsDiva.

Assay [1] has as its target T1, mutated NLRX1 protein (D677A, F680A, F681A, E684A) (Homo sapiens, UniProt Q86UT6, D677A/E684A/F680A/F681A).
T1 construct: made in house; host or cells: Pichia pastoris (by 'similar methods')
Nature of the assay: Surface plasmon resonance binding to NLRX1-Mutant. As for the experimental part: (§1) NLRX1 production and purification. Human NLRX1 (www.uniprot.org; UniProtKB—Q86UT6 (NLRX1 HUMAN)) was cloned into E. coli, amplified and transfected in Pichia pastoris. P. pastoris was plated onto adenine selective media. Stable transfected colonies were selected and grown within YPD broth at 30° C. for 24 hours, 240 RPM shaking. Starter culture was used to inoculate base media (1% yeast extract, 2% peptone, 1% sorbitol, 2% yeast nitrogen base) containing biotin and buffered with potassium phosphate. Inoculated base media was incubated for 48 hours at 30° C., 240 RPM. P. pastoris was then pelleted by centrifugation and resuspended in expression media (1% sorbitol, 2% yeast nitrogen base) containing biotin and buffered with potassium phosphate. Culture was induced daily for protein production through addition of methanol and incubated for a total of 4 days at 28° C., 240 RPM. After incubation, cells were pelleted by centrifugation and lysed by sonication. Recombinant NLRX1 protein was purified by fast protein liquid chromatography (AktaPrime) using immobilized metal affinity chromatography. Fractions of protein were eluted in 1 mL aliquots and evaluated for NLRX1 content. A mutated NLRX1 protein was generated using similar methods to disrupt binding within the predicted binding site through altering four residues to alanine (D677A, F680A, F681A, and E684A).
A Biacore T200 was used to evaluate binding to the NLRX1 protein. NLRX1-WT and NLRX1-Mutant were used as proteins to immobilize onto the CM5 sensor chip. NLRX1-WT was diluted in 10 mM sodium acetate buffer at pH 4.0 and immobilized onto the flow cell to a level of ˜3700 RU, using standard amine coupling chemistry. NLRX1-Mutant was diluted in 10 mM sodium acetate buffer at pH 4.0 and immobilized onto the flow cell to a level of ˜3100 RU, using standard amine coupling chemistry. 20 mM MOPS, 150 mM NaCl, 5 mM sodium acetate, 1 mM EDTA, 0.05% Tween-20, pH 8.0 buffer (Running buffer) was used as the immobilization running buffer. Based on the immobilized response values, theoretical Rmax values were calculated. […]
(In general: Surface plasmon resonance follows binding to a sensor surface in real time, without labels.)

The target in the next assay is T2, Human NLRX1 (NLRX1-WT) (Homo sapiens, UniProt Q86UT6).
T2 construct: made in house; host or cells: Pichia pastoris
T2 sequence (Q86UT6 87-975): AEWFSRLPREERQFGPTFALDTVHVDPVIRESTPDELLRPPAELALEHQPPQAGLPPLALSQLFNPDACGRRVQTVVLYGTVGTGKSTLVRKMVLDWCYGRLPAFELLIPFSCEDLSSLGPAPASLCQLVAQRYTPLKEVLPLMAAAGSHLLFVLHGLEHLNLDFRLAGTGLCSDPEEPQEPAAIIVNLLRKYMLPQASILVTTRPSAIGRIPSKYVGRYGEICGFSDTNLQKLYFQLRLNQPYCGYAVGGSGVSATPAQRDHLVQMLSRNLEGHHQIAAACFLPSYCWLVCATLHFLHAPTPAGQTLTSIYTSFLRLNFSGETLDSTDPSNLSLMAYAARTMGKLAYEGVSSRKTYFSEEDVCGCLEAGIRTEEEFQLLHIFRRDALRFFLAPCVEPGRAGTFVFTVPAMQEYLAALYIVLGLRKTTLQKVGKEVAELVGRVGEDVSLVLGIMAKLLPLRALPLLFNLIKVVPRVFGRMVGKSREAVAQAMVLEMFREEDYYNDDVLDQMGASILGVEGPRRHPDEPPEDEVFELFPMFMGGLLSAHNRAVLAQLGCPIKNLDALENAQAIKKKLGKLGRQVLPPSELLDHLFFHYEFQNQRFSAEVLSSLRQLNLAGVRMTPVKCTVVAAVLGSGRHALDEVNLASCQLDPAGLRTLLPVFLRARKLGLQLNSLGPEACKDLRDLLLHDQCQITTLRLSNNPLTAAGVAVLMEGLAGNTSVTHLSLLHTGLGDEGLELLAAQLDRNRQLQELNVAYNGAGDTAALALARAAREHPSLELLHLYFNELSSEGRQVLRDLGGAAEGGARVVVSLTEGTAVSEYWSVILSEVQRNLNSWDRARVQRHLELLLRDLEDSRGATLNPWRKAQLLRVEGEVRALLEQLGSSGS
Nature of the assay: Surface plasmon resonance binding to NLRX1-WT. As for the experimental part:
as §1
A Biacore T200 was used to evaluate binding to the NLRX1 protein. NLRX1-WT and NLRX1-Mutant were used as proteins to immobilize onto the CM5 sensor chip. NLRX1-WT was diluted in 10 mM sodium acetate buffer at pH 4.0 and immobilized onto the flow cell to a level of ˜3700 RU, using standard amine coupling chemistry. NLRX1-Mutant was diluted in 10 mM sodium acetate buffer at pH 4.0 and immobilized onto the flow cell to a level of ˜3100 RU, using standard amine coupling chemistry. 20 mM MOPS, 150 mM NaCl, 5 mM sodium acetate, 1 mM EDTA, 0.05% Tween-20, pH 8.0 buffer (Running buffer) was used as the immobilization running buffer. Based on the immobilized response values, theoretical Rmax values were calculated. The Rmax values assume 1:1 interaction mechanism. Overnight kinetics were performed for all analytes binding to the immobilized proteins. The kinetics experiments were performed in the μL/min. presence of running buffer+1% DMSO. The flow rate of all solutions was maintained at 50 Analyte concentrations were 0 μM, 2.5 μM, 5 μM 10 μM 20 μM and 40 μM.

For assay [2], the system named is APC^min/+ model of colorectal cancer. Nature of the assay: APCmin/+ model of colorectal cancer. The conditions noted are these: 40 mg/kg oral, four weeks. The assay is classed as in vivo, mice. As for the experimental part:
(§2) Adult BALB/c mice were injected with 5×10^6 CT26 carcinoma cells subcutaneously in the hind flank. Mice were treated daily with NX-43 at 40 mg/kg via gavage beginning on day 9. Mice were weighed daily, and tumor diameter was measured every 3 days up to day 21. Tumors were collected at weighed at necropsy. A second mouse model was used. APC^min/+ mice were administered DSS in drinking water beginning at 5 weeks of age. Mice were challenged with DSS for a total of 5 days prior to return of standard drinking water. After DSS, mice were treated with NX-43 (40 mg/kg) by oral gavage for four weeks. After four weeks, colons were excised and washed. Number of polyps were counted, and colon weights were obtained.

For another assay, the system named is CT26 carcinoma cells. In words: CT26 injected solid tumor model. Format: in vivo, BALB/c mice. As for the experimental part:
as §2
Total RNA from tumors and lymph nodes can be generated using the Qiagen RNeasy mini kit. cDNA can be generated using the BioRad iScript cDNA synthesis kit. Standard curves can be generated by serial dilution of purified product from a standard PCR reaction with Taq DNA polymerase followed by purification using the Qiagen MinElute PCR purification kit. Expression levels can be obtained from quantitative real-time PCR with SybrGreen supermix on a BioRad CFX96 Thermal cycler followed by normalization to expression of β-actin. Gene expression can be measured for genes marking immune activation such as inflammatory cytokines or surface receptors, immune suppression such as CTLA-4, PD-1, or ARG-1, and tumor growth and metastasis.
H&E stained tumor and lymph node sections can be prepared from tissue collected into 10% buffered formalin and embedded in paraffin. Slides can be examined by a board-certified veterinary pathologist via an Olympus microscope and images will be collected with Image-Pro software. Samples can be scored and evaluated for presence of tumor infiltrating leukocytes, areas of necrosis and proportion of proliferating tumor cells.
Tumors and lymph nodes can be collected into RPMI/FBS buffer containing collagenase (300 U/mL) and DNase (50 U/mL) for digestion. Tissues can be digested for 60 minutes under stirring at 37° C. […]

The target of assay [3] is T3, NLRX1 (C terminus, pdb: 3UN9) (Homo sapiens, UniProt Q86UT6).
T3 construct: the published structure for the C terminus of NLRX1 (pdb: 3UN9)
T3 sequence (Q86UT6 629-975 limits assumed): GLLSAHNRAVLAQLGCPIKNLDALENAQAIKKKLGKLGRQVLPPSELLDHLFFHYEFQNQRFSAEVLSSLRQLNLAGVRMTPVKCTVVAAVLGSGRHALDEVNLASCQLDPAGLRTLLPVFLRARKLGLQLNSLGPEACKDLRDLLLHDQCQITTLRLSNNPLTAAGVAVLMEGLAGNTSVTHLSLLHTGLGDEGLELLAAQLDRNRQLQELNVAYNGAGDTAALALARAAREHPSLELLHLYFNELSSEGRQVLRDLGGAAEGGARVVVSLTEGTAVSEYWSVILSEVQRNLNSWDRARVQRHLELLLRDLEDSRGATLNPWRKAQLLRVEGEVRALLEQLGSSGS
The conditions noted are these: low affinity NLRX1 ligand, published value; cited from earlier work.

Setting [4] is: tested at 10, 50 and 100 nanomolar.

T1 sequence (Q86UT6 87-975 D677A/F680A/F681A/E684A): as the sequence (Q86UT6 87-975) above, with D591A, F594A, F595A, E598A counted along it

As to `Cc1cccc(Oc2cc(Oc3cccc(C)n3)cc(Oc3nc(C)cc(C)n3)c2)n1` [NX-37, 2-(3,5-bis(6-methylpyridin-2-yloxy)phenoxy)-4,6-dimethylpyrimidine], in the assay with CD4+ T cells, the “change in IL-10 producing cells” value was “Neither small molecule elicited a change”, the “function at NLRX1 concluded from the cytokine results” value (“function at NLRX1 concluded” below) is “specific inhibitors of NLRX1”, the “proportion of IFNγ producing (IFNγ+) CD4+ T cells” value (“proportion of IFNγ producing” for short) is “increased” and the “proportion of TNFα producing (TNFα+) CD4+ T cells” value (shortened to “proportion of TNFα producing”) was “increased”. In the assay with CD4+ T cells, the “size and dose dependence of the effect on TNFα producing and IFNγ producing cells” value was “dose-dependent effects”. Further, the “binding to the mutated NLRX1 protein” value in assay [1] is “Loss of binding”. Moreover, at Human NLRX1 (NLRX1-WT), the “binding to NLRX1 by surface plasmon resonance (in words)” value was “bind to NLRX1”.

Take `Cc1cccc(Oc2cc(Oc3ccccc3)cc(Oc3cccc(C)n3)c2)n1` [NX-53, 2,2′-(5-phenoxy-1,3-phenylene)bis(oxy)bis(6-methylpyridine)]: the “proportion of IFNγ producing” value in the assay on CD4+ T cells was “weakly increased”.

As for `Cc1cccc(Oc2cc(Oc3cccc(C)n3)cc(Oc3ccccc3O)c2)n1` [NX-56, 2,2′-(5-(phen-6-ol)oxy-1,3-phenylene)bis(oxy)bis(6-methylpyridine)], the “proportion of IFNγ producing” value in the assay on CD4+ T cells is listed as “weakly increased”.

As to `Cc1cccc(Oc2cc(Oc3ccccn3)cc(Oc3cccc(C)n3)c2)n1` [NX-54, 2,2′-(5-(pyridin-2-yloxy)-1,3-phenylene)bis(oxy)bis(6-methylpyridine)], the “proportion of IFNγ producing” value in the assay on CD4+ T cells is reported as “minimal effects at high concentrations”.

For the molecule `Cc1cccnc1Oc1cc(Oc2ccccc2)cc(Oc2ncccc2C)c1` [NX-43, 2,2′-(5-phenoxy-1,3-phenylene)bis(oxy)bis(3-methylpyridine)], in assay [2], the “overall tumor burden (as evidenced by the colon weight)” value is “reduced”. The “number of colonic polyps” value in assay [2] (post-inflammation treatment) is “reduced”. In addition, the “time after initiation of treatment at which reduction in tumor diameter was observed” value in the assay with CT26 carcinoma cells (40 mg/kg daily via gavage) is listed as “less than 10 days”. For the same molecule, the “tumor size relative to untreated controls” value in the assay on CT26 carcinoma cells (40 mg/kg daily via gavage beginning on day 9) is listed as “reduce”. For the same molecule, the “reduction of overall tumor mass” value with CT26 carcinoma cells (after 12 days of treatment, 40 mg/kg) is recorded as “over 70%”. In addition, in the assay on CD4+ T cells, the “change in IL-10 producing cells” value is “Neither small molecule elicited a change”, the “function at NLRX1 concluded” value is “specific inhibitors of NLRX1”, the “proportion of IFNγ producing” value is on record as “increased” and the “proportion of TNFα producing” value is “increased”. For the same molecule, in the assay with CD4+ T cells, the “size and dose dependence of the effect on TNFα producing and IFNγ producing cells” value is “greater effect than NX-37”. In assay [1], the “binding to the mutated NLRX1 protein” value is recorded as “Loss of binding”. Moreover, the “binding to NLRX1 by surface plasmon resonance (in words)” value at Human NLRX1 (NLRX1-WT) was “bind to NLRX1”.

Take `Cc1cccnc1Oc1cc(Oc2ncccc2C)cc(Oc2ncccc2C)c1` [NX-50, 1,3,5-tris (3-methylpyridin-2-yloxy)benzene]: in the assay with CD4+ T cells, the “function at NLRX1 concluded” value is recorded as “activators of NLRX1”, the “proportion of IFNγ producing” value is given as “decreased” and the “proportion of TNFα producing” value is “decreased”.

As to `Cc1cc(N)cnc1Oc1cc(Oc2ncc(N)cc2C)cc(Oc2ncc(N)cc2C)c1` [NX-45, 6,6′,6″-(benzene-1,3,5-triyltris(oxy))tris(5-methylpyridin-3-amine)], in the assay with CD4+ T cells, the “function at NLRX1 concluded” value was “activators of NLRX1”, the “proportion of IFNγ producing” value is recorded as “reduces” and the “proportion of TNFα producing” value is recorded as “reduces”. In the assay with CD4+ T cells (setting [4]), the “concentrations at which the significant reduction in IFNγ+ cells occurs” value is given as at least 50 nM and the “concentrations at which the significant reduction in TNFα+ cells occurs” value is at least 10 nM.

Turning to `Cc1cc(O)cnc1Oc1cc(Oc2ccccc2)cc(Oc2ncc(O)cc2C)c1` [NX-44, 6,6′-(5-phenoxy-1,3-phenylene)bis(oxy)bis(5-methyl-3-pyridinol)], in the assay on CD4+ T cells, the “function at NLRX1 concluded” value is recorded as “specific inhibitors of NLRX1”, the “proportion of IFNγ producing” value is “increased” and the “proportion of TNFα producing” value is reported as “increased”.

`CCCC\C=C/C=C/C=C\CCCCCCCC(=O)O` [punicic acid]: the “published binding affinity to NLRX1” value in assay [3] is -6.2 kcal/mol.

Consider `Cc1cccc(Oc2cc(Oc3cccc(C)n3)cc(Oc3ccccc3C)c2)n1` [NX-55, 2,2′-(5-(6-methylphenoxy)-1,3-phenylene)bis(oxy)bis(6-methylpyridine)], for which the “proportion of IFNγ producing” value in the assay with CD4+ T cells is recorded as “only a small decrease”.
